In publication PMC12586667 (Scientific Reports, 2025):

Tests used:
CYP2D6 = CYP2D6 (Homo sapiens, UniProt P10635); test: CYP2D6 activity on chip by quantifying 1-OH bufuralol; assay type: in vitro ADME
CYP2C9 = CYP2C9 (Homo sapiens, UniProt P11712); test: CYP2C9 activity on chip by quantifying 4-OH diclofenac; assay type: in vitro ADME
[1] = Stability of metabolite in medium containing 10% FBS; assay type: in vitro ADME; details: could not be measured
[2] = system: WT and genome-edited intestine-liver-on-a-chip (Caco-2 and HepG2 cells); test: Drug permeability assay; assay type: in vitro ADME, human; details: for drug concentration in the top channel / drug concentration in the bottom channel: WT and genome-edited chips
[3] = model drugs with minimal first-pass effects; cited from earlier work
CYP1A2 = target: T1, CYP1A2 (Homo sapiens, UniProt P05177); test: CYP1A2 activity on chip by quantifying ISOPRO; assay type: in vitro ADME
T1 sequence (P05177 1-516): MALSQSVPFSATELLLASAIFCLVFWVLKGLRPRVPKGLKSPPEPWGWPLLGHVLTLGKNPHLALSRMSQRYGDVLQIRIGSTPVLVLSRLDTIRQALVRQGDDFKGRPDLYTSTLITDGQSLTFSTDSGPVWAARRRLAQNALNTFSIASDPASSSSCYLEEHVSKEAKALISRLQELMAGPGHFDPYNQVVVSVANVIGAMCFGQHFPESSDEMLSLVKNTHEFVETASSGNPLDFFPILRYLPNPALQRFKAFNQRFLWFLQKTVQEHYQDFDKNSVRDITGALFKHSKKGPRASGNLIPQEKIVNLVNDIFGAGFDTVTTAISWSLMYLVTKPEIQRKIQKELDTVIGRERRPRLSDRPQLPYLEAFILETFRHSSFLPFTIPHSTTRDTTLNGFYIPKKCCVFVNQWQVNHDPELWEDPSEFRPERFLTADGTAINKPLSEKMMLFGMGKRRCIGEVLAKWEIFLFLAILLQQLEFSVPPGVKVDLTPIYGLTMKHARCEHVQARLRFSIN

[4] = Measurement of drug absorption; assay type: physicochemical; details: within 2 h
[5] = coadministration; cited from earlier work
CYP3A4 = CYP3A4 (Homo sapiens, UniProt P08684); test: CYP3A4 activity on chip by quantifying α-OH triazolam; assay type: in vitro ADME; details: flow conditions
[6] = system: intestine-liver-on-a-chip (Caco-2 and HepG2 cells); test: Lucifer yellow permeability assay; assay type: in vitro ADME, human; details: WT and genome-edited chips vs WT or genome-edited Caco-2 mono-culture
[7] = both static and flow conditions

CYP2C9, sequence (P11712 whole entry): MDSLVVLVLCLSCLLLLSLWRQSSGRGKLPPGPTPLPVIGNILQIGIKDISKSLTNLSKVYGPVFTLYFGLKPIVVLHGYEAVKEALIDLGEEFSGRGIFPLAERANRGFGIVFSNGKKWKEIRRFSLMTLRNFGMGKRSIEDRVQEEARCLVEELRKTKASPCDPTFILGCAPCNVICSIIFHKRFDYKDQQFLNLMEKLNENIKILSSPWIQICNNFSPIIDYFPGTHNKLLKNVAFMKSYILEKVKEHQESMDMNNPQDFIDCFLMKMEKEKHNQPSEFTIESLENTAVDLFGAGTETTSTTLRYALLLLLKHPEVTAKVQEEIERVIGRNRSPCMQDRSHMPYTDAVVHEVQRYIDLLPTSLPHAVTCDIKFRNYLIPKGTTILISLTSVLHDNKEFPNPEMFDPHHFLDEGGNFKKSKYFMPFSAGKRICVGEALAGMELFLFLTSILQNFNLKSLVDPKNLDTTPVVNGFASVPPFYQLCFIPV
CYP2D6, sequence (P10635 whole entry): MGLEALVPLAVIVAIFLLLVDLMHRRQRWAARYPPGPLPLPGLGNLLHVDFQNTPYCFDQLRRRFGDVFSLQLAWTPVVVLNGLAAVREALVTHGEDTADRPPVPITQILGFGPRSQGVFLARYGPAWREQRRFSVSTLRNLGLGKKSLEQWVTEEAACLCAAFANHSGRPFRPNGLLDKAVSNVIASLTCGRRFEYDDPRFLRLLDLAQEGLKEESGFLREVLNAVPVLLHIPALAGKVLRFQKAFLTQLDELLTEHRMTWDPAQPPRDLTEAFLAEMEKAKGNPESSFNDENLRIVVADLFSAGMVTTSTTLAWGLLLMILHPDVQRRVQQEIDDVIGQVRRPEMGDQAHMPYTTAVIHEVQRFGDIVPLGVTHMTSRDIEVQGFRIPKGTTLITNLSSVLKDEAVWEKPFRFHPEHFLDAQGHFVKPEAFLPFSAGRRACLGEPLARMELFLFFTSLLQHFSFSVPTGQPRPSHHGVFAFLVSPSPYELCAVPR
CYP3A4, sequence (P08684 whole entry): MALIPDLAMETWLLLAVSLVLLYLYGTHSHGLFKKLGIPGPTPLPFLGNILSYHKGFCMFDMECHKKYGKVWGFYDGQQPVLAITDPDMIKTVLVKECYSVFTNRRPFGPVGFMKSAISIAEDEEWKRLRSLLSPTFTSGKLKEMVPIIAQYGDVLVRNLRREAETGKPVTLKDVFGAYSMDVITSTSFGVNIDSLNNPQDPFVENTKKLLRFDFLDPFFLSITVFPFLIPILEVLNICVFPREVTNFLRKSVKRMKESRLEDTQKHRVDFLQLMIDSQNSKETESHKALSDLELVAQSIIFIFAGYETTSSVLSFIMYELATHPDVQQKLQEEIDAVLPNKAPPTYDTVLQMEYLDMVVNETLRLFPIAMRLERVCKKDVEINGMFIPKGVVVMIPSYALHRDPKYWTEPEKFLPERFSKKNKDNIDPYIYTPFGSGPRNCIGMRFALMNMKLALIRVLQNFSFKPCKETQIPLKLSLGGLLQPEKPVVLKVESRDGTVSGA

1’-hydroxy bufuralol [1-OH bufuralol]
metabolite concentration, genome-edited chip vs WT chip (CYP2D6; flow, top and bottom channels, 24 and 48 h): higher in the genome-edited chip compared to the WT chip
metabolite concentration, flow vs static conditions (CYP2D6; genome-edited chip): higher than that observed in the static conditions

O=C(O)Cc1ccccc1Nc1c(Cl)cc(O)cc1Cl [4-OH diclofenac, 4’-hydroxy diclofenac]
metabolite concentration, genome-edited chip vs WT chip (CYP2C9; flow, top and bottom channel, 24 and 48 h): higher in the genome-edited chip Flow compared to the WT chip Flow
metabolite concentration, static vs flow conditions (CYP2C9; top channel of genome-edited chip): higher than that under flow conditions

CC(C)NCC(O)COc1ccc(O)c2ccccc12 (centres unmarked) [4-OH propranolol, 4-hydroxy propranolol]
stability [1]: extremely unstable

CC(=O)Nc1ccc(O)cc1 [APAP, acetaminophen]
drug concentration in the top channel, genome-edited chip vs WT chip ([2]; flow conditions, 24 and 48 h): slightly higher than those in the WT chip
drug concentration in the top channel ([2]; flow conditions, 24 and 48 h, 10 μM): decreased compared to the initial concentration of 10 μM
drug concentration in the bottom channel ([2]; flow conditions): increased substantially
drug concentration in the bottom channel ([2]; static conditions, 10 μM): increased in a time-dependent manner
drug concentration in the top channel ([2]; static conditions, 10 μM): remained constant
oral bioavailability (F) [3]: > 0.7

NCC(O)COc1cccc2ccccc12 (centres unmarked) [ISOPRO, desisopropylpropranolol]
metabolite concentration in the bottom channel (CYP1A2; flow conditions vs static): increased under flow conditions
metabolite concentration in the top channel (CYP1A2; flow conditions vs static): no change was observed
metabolite concentration, genome-edited chip vs WT chip (CYP1A2; flow, top and bottom channels, 1 μM propranolol): higher in the genome-edited chip under flow conditions compared to the WT chip
time of peak concentration in the bottom channel (CYP1A2; genome-edited chip, flow conditions): 24 h

CCc1cccc2cc(C(O)CNC(C)(C)C)oc12 (centres unmarked) [bufuralol]
drug concentration, genome-edited chips vs WT chips ([2]; after 48 h): slightly lower in the genome-edited chips than in the WT chips
drug concentration in the top channel [2, 7]: rapid decrease in concentration
drug concentration in the bottom channel ([2]; flow conditions): increased substantially compared to static conditions
adsorption onto the PDMS device [4]: substantially adsorbed

Cn1c(=O)c2c(ncn2C)n(C)c1=O [caffeine]
oral bioavailability (F) [3]: > 0.7

O=C(O)Cc1ccccc1Nc1c(Cl)cccc1Cl [diclofenac]
drug concentration in the top channel [2, 7]: slightly reduced compared to the initial concentration of 10 μM

CCC(C)n1ncn(-c2ccc(N3CCN(c4ccc(OCC5COC(Cn6cncn6)(c6ccc(Cl)cc6Cl)O5)cc4)CC3)cc2)c1=O (centres unmarked) [itraconazole]
effect on the area under the curve (AUC) of triazolam [5]: increase the area under the curve (AUC) of triazolam

CC(C)NCC(O)COc1cccc2ccccc12 (centres unmarked) [propranolol]
drug concentration in the top channel [2, 7]: rapidly decreased
drug concentration, genome-edited chips vs WT chips ([2]; flow conditions, 24 and 48 h): significantly lower than those in the WT chips
drug concentration in the bottom channel ([2]; flow conditions): increased substantially
adsorption onto the PDMS device [4]: substantially adsorbed

Cc1nnc2n1-c1ccc(Cl)cc1C(c1ccccc1Cl)=NC2 [triazolam]
drug concentration in the top channel [2, 7]: rapid decrease in concentration
drug concentration, genome-edited chips vs WT chips ([2]; flow conditions, 24 and 48 h): lower than those in WT chips
drug concentration in the bottom channel ([2]; flow conditions): increased substantially
adsorption onto the PDMS device [4]: substantially adsorbed

OCc1nnc2n1-c1ccc(Cl)cc1C(c1ccccc1Cl)=NC2 [α-OH triazolam, α-hydroxy triazolam]
metabolite concentration, genome-edited chip vs WT chip (CYP3A4): higher than that observed in the WT chip

Lucifer Yellow CH [LY]
Papp of LY in chips compared to Caco-2 cells mono-culture [6]: lower in both the WT and genome-edited chips
